What was measured:
[1] = Observational pharmacogenetic study: dose reduction due to adverse effects in smokers treated with varenicline; format: in vivo, human; settings: for Linear OR, dose reduction due to adverse effects: linear model
Experimental: (§1) In a study conducted on 807 patients from the Tobacco Addiction Units of 22 hospitals and health centers in Spain and Portugal, more than 300 SNPs relating to the relevant pathways with respect to the efficacy of the 3 first-line pharmacological tobacco cessation treatments were assessed: nicotine replacement therapy (NRT), bupropion and varenicline. The safety was assessed after three months of abstinence from tobacco consumption in relation to the presence of adverse effects which determined the reduction or withdrawal of the initially applied treatment.
(§2) The analysis process was carried out after applying the usual checks for correcting data entry errors. The status of the subjects was first characterized either as “cases” or as “controls”, depending on the safety results obtained after 3 months of follow-up after the establishment of the chosen tobacco cessation treatment. Those individuals in whom (a) it was necessary to reduce the dose of the chosen treatment due to the presence of treatment-related adverse effects, or (b) it was necessary to suspend or change the treatment due to intolerance to same according to the assessment of his/her doctor, were considered as “cases”. The different statistical analysis models thus provided information about the safety associated with the presence of a certain genetic pattern.
(§3) To assess the possibility of confounding biases as a result of the mixed population analysis, and also as a control for genotyping errors, the Hardy-Weinberg disequilibrium test was performed both in the “cases” and in the corresponding “controls”. The result of this test was assessed before analyzing the results obtained in the various logistic regression models which were used to assess the association between the specific SNPs and the safety results of the prescribed treatments. The following penetrance models were used in the logistic regression models: dominant, recessive, additive, over-dominant and log-additive. The statistical analyses were performed both with the allelic frequency and with the genotypic frequency, the latter being those which provide the most information about the associations to be replicated. All the results were presented as odds-ratios (OR) with the corresponding 95% confidence intervals and statistical significance value thereof.
(§4) Finally, the discriminating power of the different genetic indicators (SNPs) analyzed with respect to the safety results was assessed by means of […] and area under the curve analysis. The final purpose of this analysis strategy was to enable estimating the probability of adverse effects that a subject with a certain genotypic profile who starts a tobacco cessation treatment (particularly with varenicline) may have and adjusting and monitoring his/her treatment based on this information.
(§5) For the purpose of determining the pharmacogenetic profile associated with the safety of a pharmacological smoking cessation treatment, the results obtained in terms of abstinence from tobacco consumption after 3 months were evaluated in relation to the presence of adverse effects which determined the reduction or withdrawal of the initially applied treatment. The subjects were divided into three groups which were treated with NRT, bupropion or varenicline.
(§6) It is an observational study with the intervention of 21 Tobacco Addiction Units from the public health services in Spain and Portugal. A total of 807 subjects were invited to participate in the study, 798 of whom provided their sociodemographic and clinical data taking a test with 144 items. They also provided a biological sample for subsequent genotyping. 483 individuals were treated with varenicline. The information of both the phenotypic and genotypic variables was collected for 479 patients treated with varenicline before establishing the pharmacological treatment.
(§7) The clinical results were linked to the safety of the pharmacological treatments. […]

[2] = Observational pharmacogenetic study: treatment suspension due to adverse effects in smokers treated with varenicline; format: in vivo, human
Experimental: as §1, §2, §3, §4, §5, §6, §7

[3] = oral; cited from earlier work
[4] = 1 mg twice a day, 3-month treatment studies; cited from earlier work
[5] = target: α4β2 neuronal nicotinic acetylcholine receptor subtype (Homo sapiens, UniProt P17787+P43681); settings: selective partial agonist; cited from earlier work
Chain of α4β2 neuronal nicotinic acetylcholine receptor subtype (P43681 29-627 limits assumed): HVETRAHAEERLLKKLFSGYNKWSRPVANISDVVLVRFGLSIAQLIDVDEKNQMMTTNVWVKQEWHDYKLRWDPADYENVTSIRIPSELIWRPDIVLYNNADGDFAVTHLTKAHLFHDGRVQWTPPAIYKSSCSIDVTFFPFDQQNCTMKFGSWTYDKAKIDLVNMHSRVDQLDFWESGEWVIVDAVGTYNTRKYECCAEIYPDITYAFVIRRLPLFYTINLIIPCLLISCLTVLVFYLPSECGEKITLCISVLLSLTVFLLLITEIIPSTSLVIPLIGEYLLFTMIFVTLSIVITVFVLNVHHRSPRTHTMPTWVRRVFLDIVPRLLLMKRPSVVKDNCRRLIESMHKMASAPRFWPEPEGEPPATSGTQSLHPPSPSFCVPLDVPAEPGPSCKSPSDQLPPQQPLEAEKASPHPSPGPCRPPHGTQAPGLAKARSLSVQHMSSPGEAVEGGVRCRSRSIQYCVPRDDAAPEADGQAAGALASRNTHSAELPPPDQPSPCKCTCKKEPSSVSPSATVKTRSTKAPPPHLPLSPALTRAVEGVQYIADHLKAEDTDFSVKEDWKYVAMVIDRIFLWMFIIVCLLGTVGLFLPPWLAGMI
Chain of α4β2 neuronal nicotinic acetylcholine receptor subtype (P17787 26-502): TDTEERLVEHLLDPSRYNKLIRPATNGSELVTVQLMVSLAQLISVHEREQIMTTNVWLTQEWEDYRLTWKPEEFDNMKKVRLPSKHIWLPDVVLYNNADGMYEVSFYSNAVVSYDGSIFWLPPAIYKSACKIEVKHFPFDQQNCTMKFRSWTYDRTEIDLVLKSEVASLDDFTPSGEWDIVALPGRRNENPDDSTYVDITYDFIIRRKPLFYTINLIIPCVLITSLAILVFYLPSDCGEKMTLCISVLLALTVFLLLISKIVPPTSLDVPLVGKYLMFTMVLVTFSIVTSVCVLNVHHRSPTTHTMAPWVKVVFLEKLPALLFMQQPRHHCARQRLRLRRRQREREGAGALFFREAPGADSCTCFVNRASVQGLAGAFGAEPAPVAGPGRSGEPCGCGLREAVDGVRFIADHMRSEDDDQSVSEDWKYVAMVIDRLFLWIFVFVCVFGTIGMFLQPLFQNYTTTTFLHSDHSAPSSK

c1cnc2cc3c(cc2n1)C1CNCC3C1 [varenicline, 7,8,9,10-tetrahydro-6,10-methane-6H-pyrazino[2,3-h][3]benzazepine]
OR (95% CI), alleles, dose reduction due to adverse effects ([1]; rs763132 (ARHGAP18) alleles T, G): 0.43 | OR, dose reduction due to adverse effects ([1]; rs763132 (ARHGAP18) genotype G/G): 0.13 | OR, dose reduction due to adverse effects ([1]; rs763132 (ARHGAP18) genotype G/T): 0.49 | OR, dose reduction due to adverse effects ([1]; rs763132 (ARHGAP18) genotype T/T (reference)): 1.00 | Linear OR, dose reduction due to adverse effects ([1]; rs763132 (ARHGAP18) genotype): 0.44 | OR (95% CI), alleles, dose reduction due to adverse effects ([1]; rs1183035 (MAOB) alleles T, C): 0.28 | OR, dose reduction due to adverse effects ([1]; rs1183035 (MAOB) genotype C/C): 0.00 | OR, dose reduction due to adverse effects ([1]; rs1183035 (MAOB) genotype C/T): 0.83 | OR, dose reduction due to adverse effects ([1]; rs1183035 (MAOB) genotype T/T (reference)): 1.00 | Linear OR, dose reduction due to adverse effects ([1]; rs1183035 (MAOB) genotype): 0.42 | OR (95% CI), alleles, dose reduction due to adverse effects ([1]; rs4474069 (RAPGEF1) alleles C, T): 1.82 | OR, dose reduction due to adverse effects ([1]; rs4474069 (RAPGEF1) genotype C/C (reference)): 1.00 | OR, dose reduction due to adverse effects ([1]; rs4474069 (RAPGEF1) genotype C/T): 2.68 | OR, dose reduction due to adverse effects ([1]; rs4474069 (RAPGEF1) genotype T/T): 1.33 | Linear OR, dose reduction due to adverse effects ([1]; rs4474069 (RAPGEF1) genotype): 1.87 | Linear OR, treatment suspension due to adverse effects ([2]; human, in vivo, 3 months): 2.43 | OR (95% CI), alleles, treatment suspension due to adverse effects ([2]; human, in vivo, 3 months): 2.41 | OR (95% CI), alleles, treatment suspension due to adverse effects ([2]; rs7146 (C19orf6) alleles C, T): 1.83 | OR, treatment suspension due to adverse effects ([2]; rs7146 (C19orf6) genotype C/C (reference)): 1.00 | OR, treatment suspension due to adverse effects ([2]; rs7146 (C19orf6) genotype C/T): 1.61 | OR, treatment suspension due to adverse effects ([2]; rs7146 (C19orf6) genotype T/T): 4.05 | Linear OR, treatment suspension due to adverse effects ([2]; rs7146 (C19orf6) genotype, linear model): 1.93 | OR (95% CI), alleles, treatment suspension due to adverse effects ([2]; rs477292 (OPRM1) alleles G, A): 1.91 | OR, treatment suspension due to adverse effects ([2]; rs477292 (OPRM1) genotype A/A): 3.54 | OR, treatment suspension due to adverse effects ([2]; rs477292 (OPRM1) genotype A/G): 2.13 | OR, treatment suspension due to adverse effects ([2]; rs477292 (OPRM1) genotype G/G (reference)): 1.00 | Linear OR, treatment suspension due to adverse effects ([2]; rs477292 (OPRM1) genotype, linear model): 1.99 | OR (95% CI), alleles, treatment suspension due to adverse effects ([2]; rs495491 (OPRM1) alleles T, C): 2.08 | OR, treatment suspension due to adverse effects ([2]; rs495491 (OPRM1) genotype C/C): 3.80 | OR, treatment suspension due to adverse effects ([2]; rs495491 (OPRM1) genotype C/T): 2.77 | OR, treatment suspension due to adverse effects ([2]; rs495491 (OPRM1) genotype T/T (reference)): 1.00 | Linear OR, treatment suspension due to adverse effects ([2]; rs495491 (OPRM1) genotype, linear model): 2.19 | OR (95% CI), alleles, treatment suspension due to adverse effects ([2]; rs3778151 (OPRM1) alleles T, C): 2.40 | OR, treatment suspension due to adverse effects ([2]; rs3778151 (OPRM1) genotype C/C): 8.48 | OR, treatment suspension due to adverse effects ([2]; rs3778151 (OPRM1) genotype C/T): 2.26 | OR, treatment suspension due to adverse effects ([2]; rs3778151 (OPRM1) genotype T/T (reference)): 1.00 | Linear OR, treatment suspension due to adverse effects ([2]; rs3778151 (OPRM1) genotype, linear model): 2.55 | OR (95% CI), alleles, treatment suspension due to adverse effects ([2]; rs7930792 (UBASH3B) alleles C, G): 0.52 | OR, treatment suspension due to adverse effects ([2]; rs7930792 (UBASH3B) genotype C/C (reference)): 1.00 | OR, treatment suspension due to adverse effects ([2]; rs7930792 (UBASH3B) genotype C/G): 0.58 | OR, treatment suspension due to adverse effects ([2]; rs7930792 (UBASH3B) genotype G/G): 0.21 | Linear OR, treatment suspension due to adverse effects ([2]; rs7930792 (UBASH3B) genotype, linear model): 0.52 | OR (95% CI), alleles, treatment suspension due to adverse effects ([2]; rs9479757 (OPRM1) alleles G, A): 3.27 | OR, treatment suspension due to adverse effects ([2]; rs9479757 (OPRM1) genotype A/A): 12.30 | OR, treatment suspension due to adverse effects ([2]; rs9479757 (OPRM1) genotype A/G): 3.46 | OR, treatment suspension due to adverse effects ([2]; rs9479757 (OPRM1) genotype G/G (reference)): 1.00 | Linear OR, treatment suspension due to adverse effects ([2]; rs9479757 (OPRM1) genotype, linear model): 3.47 | OR (95% CI), alleles, treatment suspension due to adverse effects ([2]; rs12423809 (C12orf36) alleles A, C): 1.91 | OR, treatment suspension due to adverse effects ([2]; rs12423809 (C12orf36) genotype A/A (reference)): 1.00 | OR, treatment suspension due to adverse effects ([2]; rs12423809 (C12orf36) genotype A/C): 1.59 | OR, treatment suspension due to adverse effects ([2]; rs12423809 (C12orf36) genotype C/C): 3.53 | Linear OR, treatment suspension due to adverse effects ([2]; rs12423809 (C12orf36) genotype, linear model): 1.87 | absorption [3]: complete | systemic availability [3]: high | time of maximum plasma concentrations after intake [3]: 3 to 4 h | treatment withdrawal rate due to adverse effects [4]: 12% | withdrawal rate due to headache [4]: 0.6% | withdrawal rate due to insomnia [4]: 1.2% | withdrawal rate due to nausea [4]: 3% | withdrawal rate due to sleep alterations [4]: 0.3% | affinity [5]: high affinity
